The target in assay [1] is T1, JAK1 (Homo sapiens, UniProt P23458).
T1 construct: Recombinant human JAK1 (catalytic domain, amino acids 866-1154; catalog number PV4774); purchased Invitrogen PV4774
Briefly: JAK1 Ki determination assay. The assay is classed as biochemical. The following applies: Lineweaver-Burk, varying ATP, Ulight-JAK-1 peptide; read-out: Ki against JAK1. Here is the method: For the determination of Ki, different amounts of compound were mixed with the enzyme and the enzymatic reaction was followed as a function of ATP concentration. The Ki was determined by means of double reciprocal plotting of Km vs compound concentration (Lineweaver-Burk plot). 1 ng of JAK1 (Invitrogen, PV4774) is used in the assay. The substrate was 50 nM Ulight-JAK-1 (Tyr1023) Peptide (Perkin Elmer, TRF0121) The reaction is performed in 25 mM MOPS pH 6.8, 0.01%, 2 mM DTT, 5 mM MgCl2 Brij-35 with varying concentrations of ATP and compound. Phosphorylated substrate was measured using an Eu-labeled anti-phosphotyrosine antibody PT66 (Perkin Elmer, AD0068) as described in 1.1.2. Readout was performed on the envision (Perkin Elmer) with excitation at 320 nm and emission followed at 615 nm and 665 nm.

Assay [2] has as its system Collagen Induced Arthritis (CIA). Briefly: Rat CIA model. The following applies: p.o., therapeutic dosing day 16 to day 30. It is filed as in vivo. Here is the method: Completed Freund's adjuvant (CFA) and incomplete Freund's adjuvant (IFA) were purchased from Difco. Bovine collagen type II (CII), lipopolysaccharide (LPS), and Enbrel was obtained from Chondrex (Isle d'Abeau, France); Sigma (P4252, L'Isle d'Abeau, France), […] (25 mg injectable syringe, France) Acros Organics (Palo Alto, Calif.), respectively. All other reagents used were of reagent grade and all solvents were of analytical grade. Dark Agouti rats (male, 7-8 weeks old) were obtained from Harlan Laboratories (Maison-Alfort, France). Rats were kept on a 12 h light/dark cycle (0700-1900). Temperature was maintained at 22° C., and food and water were provided ad libitum. […] A compound of interest was typically tested at 5 doses, e.g. 1, 2, 3, 5, and 10 mg/kg, p.o. Arthritis is scored according to the method of Khachigian 2006, Lin et al 2007 and Nishida et al. 2004). […] To permit the meta-analysis of multiple studies the clinical score values were normalised as follows: AUC of clinical score (AUC score): The area under the curve (AUC) from day 1 to day 14 was calculated for each individual rat. The AUC of each animal was divided by the average AUC obtained for the vehicle in the study from which the data on that animal was obtained and multiplied by 100 (i.e. the AUC was expressed as a percentage of the average vehicle AUC per study). […]

What is called Ki is a dissociation constant, usually derived from enzyme kinetics or from competition with a known ligand.

Molecules are shown by their SMILES.

T1 sequence (P23458 866-1154): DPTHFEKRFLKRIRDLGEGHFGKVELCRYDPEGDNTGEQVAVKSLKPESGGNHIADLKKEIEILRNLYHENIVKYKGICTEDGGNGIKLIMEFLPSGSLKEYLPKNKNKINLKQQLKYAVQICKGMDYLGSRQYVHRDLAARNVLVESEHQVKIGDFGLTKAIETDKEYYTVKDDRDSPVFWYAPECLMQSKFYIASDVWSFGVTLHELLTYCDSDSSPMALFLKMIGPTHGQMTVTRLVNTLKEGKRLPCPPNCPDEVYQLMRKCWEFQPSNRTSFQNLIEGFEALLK

In the case of `CCc1cc(C2CN(S(C)(=O)=O)C2)ncc1N(C)c1cc2c(cn1)ncn2C` [Compound 1, [4-Ethyl-6-(1-methanesulfonyl-azetidin-3-yl)-pyridin-3-yl]-methyl-(1-methyl-1H-imidazo[4,5-d]pyridin-6-yl)-amine], in assay [1], the Ki came to 9.21 nM. The “dose from which statistically significant efficacy was displayed” value in assay [2] was at least 3 mg/kg.

(Values after US20140213576A1, “NOVEL COMPOUND USEFUL FOR THE TREATMENT OF DEGENERATIVE AND INFLAMMATORY DISEASES” (GALAPAGOS NV, priority 2013, published 2014).)
